Laboratory results reported in paper PMC12693764, “Antidepressant-like Effects of Garcinia nigrolineata Resin Extract in a Chronic Mild Stress Mouse Model: Modulation of Monoaminergic and HPA-Axis Pathways” (Plants, 2025).
Structures can show the parent of a compound that is named as a salt.

Legend:
MAO-B = conditions: cited from earlier work; for MAO-B inhibition (targeting): GNR-E constituents, ref Previous studies
immobility = tested on: immobility; design: method as in Sahu et al.; conditions: α-mangostin from G. mangostana, by elevating 5-HT; ref Sahu et al.; cited from earlier work
[1] = tested on: antidepressant-like properties; conditions: through monoaminergic modulation; cited from earlier work
MAO-A = conditions: cited from earlier work; for selective MAO-A inhibition: GNR-E constituents, ref Previous studies
NET, α2A, and α2C = assay: qPCR of noradrenergic biomarker genes in frontal cortex and hippocampus of CMS mice; type: in vivo, male ICR mice
Method: (§1) The CMS procedure, adapted from Willner, was applied to experimental mice over 48 days. Seventy-two mice were randomly assigned to six groups: a non-stress control group and four CMS-exposed groups for 6 weeks. Stressors included a tilted cage at 45° (12 h), restricted food access (five micro pellets, 1 h), empty bottle exposure (3 h), wet cage (200 mL water in 100 g sawdust bedding, 21 h), reversed light–dark cycle (36 h), intermittent sound (3 and 5 h), paired caging (2 h), and food/water deprivation (18 h), applied randomly weekly and repeated over 6 weeks (Figure 11). The non-stressed group was maintained under standard conditions.
Mice were randomly divided into six groups (n = 15). The non-stress group received 0.5% sodium carboxymethylcellulose (SCMC; 1 mL/kg, p.o.), while the CMS group received 0.5% SCMC (1 mL/kg, p.o.). The CMS + imipramine (IMP) group was administered imipramine hydrochloride (20 mg/kg, p.o.), and the CMS + GNR-E groups received GNR-E at 50, 150, and 450 mg/kg (p.o.), respectively. All treatments were given daily for 3 weeks, starting on day 21, at 8:00 a.m., one hour before behavioral testing.
Following behavioral tests, mice were anesthetized with […] (Nembutal®, Ceva Sante Animal, Libourne, France) at 60 mg/kg (i.p.) and decapitated. Blood and brain samples were collected immediately. Blood was centrifuged at 3000 rpm at 21 °C for 20 min to obtain serum for ELISA analysis. […]
(§2) Total RNA was extracted from frontal cortex (FC) and hippocampus (HP) using TRLzol® reagent (Thermo Fisher Scientific Inc., San Jose, CA, USA), with purity and quantity assessed via UV spectrophotometry. […] Double-stranded DNA was quantified using SYBR Green master mix (Thermo Fisher Scientific Inc., San Jose, CA, USA) in a 20 µL reaction containing 2X SYBR Green PCR Master Mix, 10 nM of each primer, and 5 µL cDNA. […] Glyceraldehyde 3-phosphate dehydrogenase (GAPDH) mRNA served as the housekeeping gene, and fold differences were calculated using the 2^−∆∆CT method, incorporating standard deviation into the fold-difference calculation.

[2] = tested on: SERT, 5-HT1A, 5-HT1B, 5-HT2A, 5-HT2C, and 5-HT7; assay: qPCR of serotonergic biomarker genes in frontal cortex and hippocampus of CMS mice; type: in vivo, male ICR mice
From the text: The CMS procedure, adapted from Willner [4], was applied to experimental mice over 48 days. Seventy-two mice were randomly assigned to six groups: a non-stress control group and four CMS-exposed groups for 6 weeks.
The frontal cortex (FC) and hippocampus (HP) were dissected from the brain for serotonin (5-HT), norepinephrine (NE) level assessments, and RT-qPCR analyses.
Total RNA was extracted from frontal cortex (FC) and hippocampus (HP) using TRLzol® reagent (Thermo Fisher Scientific Inc., San Jose, CA, USA), with purity and quantity assessed via UV spectrophotometry. Complementary DNA (cDNA) was synthesized using 10 mM dNTP, 50 µM oligo (dT)12-13 primer, and SuperScript® III reverse transcriptase (200 U/µL) in a FlexCycler2 PCR Thermal Cycler (Analytik Jena, Thuringia, Germany). Single-stranded DNA was annealed to gene-specific primers (Pacific Science, Bangkok, Thailand) at optimized temperatures, followed by extension. Double-stranded DNA was quantified using SYBR Green master mix (Thermo Fisher Scientific Inc., San Jose, CA, USA) in a 20 µL reaction containing 2X SYBR Green PCR Master Mix, 10 nM of each primer, and 5 µL cDNA. […] Melting curve analysis was conducted post-amplification. Glyceraldehyde 3-phosphate dehydrogenase (GAPDH) mRNA served as the housekeeping gene, and fold differences were calculated using the 2^−∆∆CT method, incorporating standard deviation into the fold-difference calculation [30].

serotonin (5-HT) = assay: Serotonin (5-HT) levels in frontal cortex and hippocampus of CMS mice; type: in vivo, male ICR mice; conditions: daily imipramine 20 mg/kg or GNR-E 450 mg/kg, vs vehicle-treated CMS group
Method: as §1
(§3) Mice were randomly divided into six groups (n = 15). The non-stress group received 0.5% sodium carboxymethylcellulose (SCMC; 1 mL/kg, p.o.), while the CMS group received 0.5% SCMC (1 mL/kg, p.o.). […]
Serotonin levels in mouse brain extracts were quantified using a modified fluorometric method.A 0.2 mL brain extract sample was mixed with 0.25 mL O-phthaldialdehyde (Sigma-Aldrich, St. Louis, MO, USA) and heated to 100 °C for 10 min to form a fluorophore. Levels were measured spectrofluorometrically at 340 nm (excitation) and 470 nm (emission) after cooling to room temperature. Concentrations were determined against a calibration curve (0, 25, 50, 100, 200, 300, 400 µg/mL) using the equation Y = AX + B, expressed as µg/mL.

[3] = tested on: glucocorticoid receptor (GR) and serum/glucocorticoid-regulated kinase-1 (SGK-1); assay: qPCR of HPA-axis genes in frontal cortex and hippocampus of CMS mice; type: in vivo, male ICR mice; conditions: FC and HP, daily imipramine or GNR-E 50, 150, 450 mg/kg, vs vehicle-treated CMS group
Method: as §1
Mice were randomly divided into six groups (n = 15). […]
as §2

[4] = tested on: serum corticosterone (CORT); assay: Serum corticosterone (CORT) ELISA in CMS mice; type: in vivo, male ICR mice; conditions: daily imipramine 20 mg/kg or GNR-E 50, 150 and 450 mg/kg, p < 0.001 vs vehicle-treated CMS group
Method: as §1
Mice were randomly divided into six groups […]. The non-stress group received 0.5% sodium carboxymethylcellulose (SCMC; 1 mL/kg, p.o.), while the CMS group received 0.5% SCMC (1 mL/kg, p.o.). The CMS + imipramine (IMP) group was administered imipramine hydrochloride (20 mg/kg, p.o.), and the CMS + GNR-E groups received GNR-E at 50, 150, and 450 mg/kg (p.o.), respectively. All treatments were given daily for 3 weeks, starting on day 21, at 8:00 a.m., one hour before behavioral testing. […]
Corticosterone levels were measured using an enzyme-linked immunosorbent assay (ELISA) kit (ab108821, Abcam Ltd., Cambridge, Cambridgeshire, UK) following the manufacturer’s instructions. […]

[5] = tested on: depressive-like behaviors; assay: Chronic mild stress (CMS) mouse model of depression, behaviours overall; type: in vivo, male ICR mice; conditions: CMS mice, oral GNR-E 50, 150, 450 mg/kg/day, imipramine 20 mg/kg/day
Method: as §1, with “conditions. Mice were randomly divided into six groups […]. The non-stress group received 0.5% sodium carboxymethylcellulose (SCMC; 1 mL/kg, p.o.), while the CMS group received 0.5% SCMC (1 mL/kg, p.o.). […] All treatments were given daily for 3 weeks, starting on day 21, at 8:00 a.m., one hour before behavioral testing.” for “conditions.”

[6] = tested on: CMS-induced anhedonia behavior; assay: Sucrose preference (consumption) test in CMS mice; type: in vivo, male ICR mice; conditions: imipramine 20 mg/kg p.o. daily, by week 4
Method: Five-week-old male ICR mice (15–20 g) were obtained from Nomura Siam International (Bangkok, Thailand) and acclimatized for seven days prior to experimentation. The study protocol adhered to the Guiding Principle for the Care and Use of Animals (NIH Publications #8-23, revised 2011) and was approved by the Animal Ethics Committee of Khon Kaen University (approval No. IACUC-KKU-121/64), complying with ARRIVE guideline 2.0. […] Behavioral experiments were conducted between 07:00 and 17:00 h. The CMS procedure, adapted from Willner, was applied to experimental mice over 48 days. Seventy-two mice were randomly assigned to six groups: a non-stress control group and four CMS-exposed groups for 6 weeks. […] The amount consumed each day was recorded and used to group the mice and establish the baseline sucrose consumption before initiating the chronic stress procedure. During the subsequent experimental period (week 1–6), sucrose consumption was measured weekly using the same deprivation and testing conditions under chronic stress. The weight of each mouse and the amount of sucrose solution consumed were recorded and calculated as the amount of sucrose intake g/kg body weight).

norepinephrine (NE) = assay: Norepinephrine (NE) levels in frontal cortex and hippocampus of CMS mice; type: in vivo, male ICR mice; conditions: daily imipramine 20 mg/kg or GNR-E 450 mg/kg, vs vehicle-treated CMS group
Method: as §1, §3
Brain supernatant (0.2 mL) was combined with 0.1 mL sodium acetate buffer (pH 6.9), 0.05 mL HCl (0.4 M), and 0.1 mL iodine solution (0.1 M in ethanol) for oxidation. […] Excitation and emission spectra were recorded at 395 nm and 485 nm, respectively, using a calibrated spectrofluorometer. Norepinephrine concentrations were calculated from a standard curve (0, 50, 100, 140, 220, 280, 300 µg/mL) prepared in distilled water and butanol/HCl (1:2 ratio).

[7] = FC and HP, imipramine, GNR-E 150–450 mg/kg
[8] = imipramine, GNR-E 150–450 mg/kg

For `COc1c(O)cc2oc3cc(O)c(CC=C(C)C)c(O)c3c(=O)c2c1CC=C(C)C` [α-mangostin], the “MAO-B inhibition (targeting)” value (MAO-B) is listed as “targeting MAO-B”, the “MAO-B inhibition, relative strength” value (MAO-B; ref Our previous study) is listed as “stronger MAO-B inhibition” and the immobility (immobility) is listed as “reducing immobility”. The antidepressant-like properties [1] was “antidepressant-like properties”.

For xanthochymusxanthone A, the “selective MAO-A inhibition” value (MAO-A) is listed as “selectively inhibiting MAO-A”.

In the case of cowagarcinone A, the “selective MAO-A inhibition” value (MAO-A) is given as “selectively inhibiting MAO-A”.

In the case of cowaxanthone, the “selective MAO-A inhibition” value (MAO-A) is given as “selectively inhibiting MAO-A”.

For `COc1c(O)cc2oc3cc(O)c(CC=C(C)C)c(O)c3c(=O)c2c1C/C=C(\C)CCC=C(C)C` [cowanin], the “selective MAO-A inhibition” value (MAO-A) is given as “selectively inhibiting MAO-A” and the “MAO-A inhibition, rank among constituents” value (MAO-A; ref Our previous study) is given as “most potent toward MAO-A”.

With `CN(C)CCCN1c2ccccc2CCc2ccccc21` [imipramine, imipramine hydrochloride] the “CMS-increased expression of noradrenergic genes (NET, α2A, α2C)” value (NET, α2A, and α2C; FC and HP, daily imipramine or GNR-E, highest dose greatest effect) was “significantly attenuated”, the “CMS-upregulated NET mRNA expression” value (NET, α2A, and α2C; [7]) was “reversed” and the “CMS-upregulated α2A and α2C receptor expression” value (NET, α2A, and α2C; [8]) was “reversed”. For the same compound, the “CMS-induced upregulation of serotonergic biomarker genes (SERT, 5-HT1A, 5-HT1B, 5-HT2A, 5-HT2C, 5-HT7)” value ([2]; FC and HP, daily imipramine 20 mg/kg or GNR-E 50, 150, 450 mg/kg, vs vehicle-treated CMS group) was “significantly reduced these elevations”, the “CMS-increased 5-HT1A and 5-HT1B mRNA expression” value ([2]; FC and HP, imipramine, GNR-E 450 mg/kg) was “reversed” and the “CMS-upregulated SERT mRNA expression” value [2, 7] was “reversed”. The “CMS-elevated 5-HT2A, 5-HT2C, and 5-HT7 receptor expression” value [2, 8] was “mitigated”, the “5-HT levels in frontal cortex and hippocampus” value (serotonin (5-HT)) was “significantly restored 5-HT and NE levels” and the “CMS-induced changes in SGK-1 (increased) and GR (decreased) mRNA levels” value [3] was “significantly reversed these changes”. For the same compound, the “serum CORT levels” value [4] was “significantly reduced these elevated CORT levels”, the depressive-like behaviors [5] was “significantly improved depressive-like behaviors” and the “sucrose intake (2% sucrose solution)” value [6] was “significant increase in sucrose intake”. For the same compound, the “NE levels in frontal cortex and hippocampus” value (norepinephrine (NE)) was “significantly restored 5-HT and NE levels”.

For `COc1cc2oc3cc(O)c(CC=C(C)C)c(O)c3c(=O)c2c(CC=C(C)C)c1OC` [cowaxanthone B], the “MAO-B inhibition (targeting)” value (MAO-B) is given as “targeting MAO-B”.
